The numbers were not newly measured in patent US20110136769A1, “METHOD OF TREATING MEN WITH TE[…] 5ALPHA-REDUCTASE INHIBITOR” (Merck Sharp & Dohme Corp., priority 2007, published 2011), which cites them from elsewhere.

In series [1] the target is T1, 5α-reductase type 2 (Homo sapiens, UniProt P31213).
T1 construct: Samples of human tissue were pulverized using a freezer mill and homogenized; from tissue; host or cells: human prostate (crude nuclear pellet of homogenate)
T1 sequence (P31213 1-254): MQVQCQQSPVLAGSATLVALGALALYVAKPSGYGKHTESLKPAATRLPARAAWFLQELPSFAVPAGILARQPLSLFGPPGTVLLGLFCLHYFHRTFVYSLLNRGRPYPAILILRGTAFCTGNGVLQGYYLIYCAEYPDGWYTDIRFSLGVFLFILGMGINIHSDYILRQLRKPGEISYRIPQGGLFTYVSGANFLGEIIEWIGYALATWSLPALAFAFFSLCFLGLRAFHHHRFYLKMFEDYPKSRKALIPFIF
The conditions noted are these: background statement.

For series [2], the target named is T2, 5α-reductase type 1 (Homo sapiens, UniProt P18405).
T2 construct: Samples of human tissue were pulverized using a freezer mill and homogenized; from tissue; host or cells: human scalp (crude nuclear pellet of homogenate)
T2 sequence (P18405 1-259): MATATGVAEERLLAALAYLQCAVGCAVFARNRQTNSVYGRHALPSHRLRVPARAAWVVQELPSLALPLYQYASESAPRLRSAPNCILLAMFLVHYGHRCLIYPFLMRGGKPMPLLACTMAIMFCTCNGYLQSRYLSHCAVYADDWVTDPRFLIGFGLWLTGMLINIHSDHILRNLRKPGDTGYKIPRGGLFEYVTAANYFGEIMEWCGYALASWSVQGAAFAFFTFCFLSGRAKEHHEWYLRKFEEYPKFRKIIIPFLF
The conditions noted are these: background statement.

Take `CC(C)(C)NC(=O)[C@H]1CCC2C3CCC4NC(=O)C=C[C@]4(C)C3CC[C@@]21C` (stereo partly drawn) [Finasteride, 17β-(N-tert-butylcarbamoyl)-3-oxo-4-aza-5α-androst-1-en-3-one]: the “inhibition of the human type 2 enzyme” value in series [1] is “potent inhibitor”. `C[C@]12C=CC(=O)N[C@@H]1CC[C@@H]1[C@@H]2CC[C@]2(C)[C@@H](C(=O)Nc3cc(C(F)(F)F)ccc3C(F)(F)F)CC[C@@H]12` [dutasteride]: the “inhibition of 5α-reductase type 1” value in series [2] is recorded as “potent inhibitors”. In addition, the “inhibition of the human type 2 enzyme” value in series [1] is given as “potent inhibitors”.
